The subject of series [1] is human foreskin fibroblast (HFF). The experiment in a line: Five-day growth inhibition assay, host cell cytotoxicity. Particulars: 120 h. The protocol: (§1) Using published methods[8]^,[19], all of the prepared N-substituted thiazolidinones derivatives were evaluated in vitro for (i) host cell cytotoxicity as well as for the ability to inhibit tachyzoite growth over a period of 5 days (Table 1), for (ii) the ability to inhibit tachyzoite invasion of host cells (Figure 1), and for (iii) the ability to inhibit intracellular tachyzoite replication (Figure 2).
(§2) Compounds were tested for the ability to inhibit in vitro tachyzoite (T. gondii RH-2 F (50839); ATCC, VA) and human foreskin fibroblast (HFF; ATCC) growth for 120 h using a published colorimetric assay[8]^,[19]. Stock solutions of all compounds were 10 mM in DMSO. Serial 0.5 log10 dilutions (320–0.032 μM) of each compound were tested. Data from three separate experiments were analysed and the IC50, IC90, and TD50 calculated using Calcusyn software (Biosoft, Cambridge, UK). The therapeutic index (TI), a measure of specific anti-T. gondii activity, was calculated with the formula shown under Table 1.

In series [2] the test system is T. gondii RH-2 F tachyzoites. Nature of the series: Five-day growth inhibition assay (tachyzoite growth, colorimetric). Particulars: 120 h, T. gondii RH-2 F in HFF, three experiments; for pIC50: read-out: IC50, median inhibitory concentration, a measure of tachyzoite inhibition; for IC90: read-out: IC90, concentration at which 90% of the tachyzoite growth is inhibited. The series is classed as cell-based, Toxoplasma gondii. How it is done: as §1, §2
We explored the chemical space and the influence on the biological activity of different groups (substituted aromatic and bicyclic rings) at the lactam NH of the core nucleus. […] In the five-day growth inhibition assay, compounds were added only once, just before addition of tachyzoites, and thus were present for multiple cycles, up to 20, of parasite replication.

[3] abbreviates: HFF cells, top concentration 320 μM.

The structures appear in SMILES notation. pIC50: −log10 of the molar value. Read-outs that look alike come from different tables or passages of the source.

As to `O=C1C(O)=C([C@H]2CC[C@H](c3ccc(Cl)cc3)CC2)C(=O)c2ccccc21` [Atovaquone, reference compound], the “TD50, median toxicity dose, a measure of cytotoxicity against host cells” value (“TD50, median toxicity dose, a measure” below) in series [1] (human) came out at 24 µM. In series [2] (Toxoplasma gondii), the pIC50 is 6.70 and the IC90 came out at 2 µM.
As usually defined, the melting point is the temperature of the solid-liquid transition. Regarding `CCCCC(CC)=NN=C1SCC(=O)N1Cc1ccccc1[N+](=O)[O-]` [Compound 1, 2-((Heptan-3-ylidene)hydrazono)-3-(2-nitrobenzyl)thiazolidin-4-one], the melting point was in the range of 67 to 69 °C. Further, the “TD50, median toxicity dose, a measure” value in series [1] (human) came to 236 µM. Moreover, in series [2] (Toxoplasma gondii), the pIC50 is 4.70 and the IC90 was found to be 111 µM.
Compound `CC(=NN=C1SCC(=O)N1Cc1ccccc1[N+](=O)[O-])c1cccs1` [Compound 2, 3-(2-Nitrobenzyl)-2-((1-(thiophen-2-yl)ethylidene)hydrazono)thiazolidin-4-one] showed a melting point of 150 to 151 °C. For the same compound, the “TD50, median toxicity dose, a measure” value in series [1] (human) was found to be 280 µM. In series [2] (Toxoplasma gondii), the pIC50 was 4.43 and the IC90 stood at 155 µM.
On to `CCCCC(CC)=NN=C1SCC(=O)N1Cc1cccc([N+](=O)[O-])c1` [Compound 4, 2-((Heptan-3-ylidene)hydrazono)-3–(3-nitrobenzyl)thiazolidin-4-one], for which the “TD50, median toxicity dose, a measure” value in series [1] (human) was 68 µM. Moreover, in series [2] (Toxoplasma gondii), the pIC50 is 4.36 and the IC90 stood at 138 µM.
In turn, `CC(=NN=C1SCC(=O)N1Cc1cccc([N+](=O)[O-])c1)c1cccs1` [Compound 5, 3-(3-Nitrobenzyl)-2-((1-(thiophen-2-yl)ethylidene)hydrazono)thiazolidin-4-one] displayed a melting point of 165 to 170 °C. For the same compound, in series [1] (human), the “TD50, median toxicity dose, a measure” value is no less than 320 µM. Besides, in series [2] (Toxoplasma gondii), the pIC50 was 4.28 and the IC90 stood at 171 µM.
Regarding `CC(=NN=C1SCC(=O)N1Cc1cccc([N+](=O)[O-])c1)c1ccc[cH-]1.[Fe+2].c1cc[cH-]c1` [Compound 6, 3-(3-Nitrobenzyl)-2-((1-(ferrocen-2-yl)ethylidene)hydrazono)thiazolidin-4-one], the “TD50, median toxicity dose, a measure” value in series [1] (setting [3]) is no less than 320 µM. For the same compound, in series [2], the pIC50 was 4.62 and the IC90 stood at 152 µM.
Take `CCCCC(CC)=NN=C1SCC(=O)N1Cc1ccc([N+](=O)[O-])cc1` [Compound 7, 2-((Heptan-3-ylidene)hydrazono)-3-(4-nitrobenzyl)thiazolidin-4-one]: in series [1] (human), the “TD50, median toxicity dose, a measure” value worked out at 98 µM. For the same compound, in series [2] (Toxoplasma gondii), the pIC50 was 4.49 and the IC90 worked out at 128 µM.
In the case of `CCCCC(CC)=NN=C1SCC(=O)N1Cc1ccccc1F` [Compound 10, 3-(2-Fluorobenzyl)-2-((heptan-3-ylidene)hydrazono)thiazolidin-4-one], the “TD50, median toxicity dose, a measure” value in series [1] (human) is 90 µM. In addition, in series [2] (Toxoplasma gondii), the pIC50 is 4.62 and the IC90 came to 104 µM.
With `CC(=NN=C1SCC(=O)N1Cc1ccccc1F)c1cccs1` [Compound 11, 3-(2-Fluorobenzyl)-2-((1-(thiophen-2-yl)ethylidene)hydrazono)thiazolidin-4-one], the melting point lay within 80 to 85 °C. In addition, in series [1] (human), the “TD50, median toxicity dose, a measure” value was 82 µM. Besides, in series [2] (Toxoplasma gondii), the pIC50 is 4.60 and the IC90 was determined as 103 µM.
As to `CCCCC(CC)=NN=C1SCC(=O)N1Cc1cccc(F)c1` [Compound 13, 3-(3-Fluorobenzyl)-2-((heptan-3-ylidene)hydrazono)thiazolidin-4-one], the melting point lay within 30 to 31 °C. In series [1] (human), the “TD50, median toxicity dose, a measure” value was 246 µM. Further, in series [2] (Toxoplasma gondii), the pIC50 is 4.74 and the IC90 was determined as 99 µM.
For `CC(=NN=C1SCC(=O)N1Cc1cccc(F)c1)c1cccs1` [Compound 14, 3-(3-Fluorobenzyl)-2-((1-(thiophen-2-yl)ethylidene)hydrazono)thiazolidin-4-one], the melting point lay within 84 to 85 °C. The “TD50, median toxicity dose, a measure” value in series [1] (human) was determined as 178 µM. Moreover, in series [2] (Toxoplasma gondii), the pIC50 was 4.35 and the IC90 is 147 µM.
On to `CCCCC(CC)=NN=C1SCC(=O)N1Cc1ccc(F)cc1` [Compound 16, 3–(4-Fluorobenzyl)-2-((heptan-3-ylidene)hydrazono)thiazolidin-4-one], for which the “TD50, median toxicity dose, a measure” value in series [1] (human) came to 192 µM. Also, in series [2] (Toxoplasma gondii), the pIC50 is 4.54 and the IC90 is 107 µM.
For the compound `CC(=NN=C1SCC(=O)N1Cc1ccc(F)cc1)c1cccs1` [Compound 17, 3-(4-Fluorobenzyl)-2-((1-(thiophen-2-yl)ethylidene)hydrazono)thiazolidin-4-one], the melting point is 118 to 123 °C. For the same compound, the “TD50, median toxicity dose, a measure” value in series [1] (human) was no less than 320 µM. Besides, in series [2] (Toxoplasma gondii), the pIC50 was 4.14 and the IC90 worked out at 312 µM.
In the case of `CCCCC(CC)=NN=C1SCC(=O)N1Cc1ccccc1Cl` [Compound 19, 3-(2-Chlorobenzyl)-2-((heptan-3-ylidene)hydrazono)thiazolidin-4-one], the “TD50, median toxicity dose, a measure” value in series [1] (human) stood at 95 µM. For the same compound, in series [2] (Toxoplasma gondii), the pIC50 is 4.41 and the IC90 stood at 183 µM.
With `CC(=NN=C1SCC(=O)N1Cc1ccccc1Cl)c1cccs1` [Compound 20, 3-(2-Chlorobenzyl)-2-((1-(thiophen-2-yl)ethylidene)hydrazono)thiazolidin-4-one], the melting point fell in the range of 100 to 102 °C. In addition, the “TD50, median toxicity dose, a measure” value in series [1] (human) is 84 µM. In series [2] (Toxoplasma gondii), the pIC50 is 4.47 and the IC90 worked out at 112 µM.
Take `CC(=NN=C1SCC(=O)N1Cc1ccccc1Cl)c1ccc[cH-]1.[Fe+2].c1cc[cH-]c1` [Compound 21, 3-(2-Chlorobenzyl)-2-((1-(ferrocen-2-yl)ethylidene)hydrazono)thiazolidin-4-one]: in series [1] (setting [3]), the “TD50, median toxicity dose, a measure” value was no less than 320 µM. Further, in series [2], the pIC50 was 5.05 and the IC90 came out at 24 µM.
Turning to `CCCCC(CC)=NN=C1SCC(=O)N1Cc1cccc(Cl)c1` [Compound 22, 3-(3-Chlorobenzyl)-2-((heptan-3-ylidene)hydrazono)thiazolidin-4-one], the “TD50, median toxicity dose, a measure” value in series [1] (human) is 165 µM. Besides, in series [2] (Toxoplasma gondii), the pIC50 is 4.72 and the IC90 is 106 µM.
Compound `CC(=NN=C1SCC(=O)N1Cc1cccc(Cl)c1)c1cccs1` [Compound 23, 3-(3-Chlorobenzyl)-2-((1-(thiophen-2-yl)ethylidene)hydrazono)thiazolidin-4-one] registered a melting point of 129 to 131 °C. Moreover, in series [1] (human), the “TD50, median toxicity dose, a measure” value worked out at 147 µM. In series [2] (Toxoplasma gondii), the pIC50 was 4.29 and the IC90 was 256 µM.
Regarding `CC(=NN=C1SCC(=O)N1Cc1cccc(Cl)c1)c1ccc[cH-]1.[Fe+2].c1cc[cH-]c1` [Compound 24, 3-(3-Chlorobenzyl)-2-((1-(ferrocen-2-yl)ethylidene)hydrazono)thiazolidin-4-one], the “TD50, median toxicity dose, a measure” value in series [1] (setting [3]) was no less than 320 µM. In addition, in series [2], the pIC50 was 5.10 and the IC90 was 17 µM.
In the case of `CCCCC(CC)=NN=C1SCC(=O)N1Cc1ccc(Cl)cc1` [Compound 25, 3-(4-Chlorobenzyl)-2-((heptan-3-ylidene)hydrazono)thiazolidin-4-one], the “TD50, median toxicity dose, a measure” value in series [1] (human) was 244 µM. In series [2] (Toxoplasma gondii), the pIC50 was 4.29 and the IC90 turned out to be 131 µM.
Regarding `CC(=NN=C1SCC(=O)N1Cc1ccc(Cl)cc1)c1cccs1` [Compound 26, 3-(4-Chlorobenzyl)-2-((1-(thiophen-2-yl)ethylidene)hydrazono)thiazolidin-4-one], the melting point was 146 to 151 °C. For the same compound, in series [1] (human), the “TD50, median toxicity dose, a measure” value was no less than 320 µM. In addition, in series [2] (Toxoplasma gondii), the pIC50 is 4.09 and the IC90 worked out at 211 µM.
`CCCCC(CC)=NN=C1SCC(=O)N1Cc1cccc2ccccc12` [Compound 28, 2-((Heptan-3-ylidene)hydrazono)-3-(naphthalen-1-ylmethyl)thiazolidin-4-one]: the “TD50, median toxicity dose, a measure” value in series [1] (human) was 271 µM. Also, in series [2] (Toxoplasma gondii), the pIC50 was 4.43 and the IC90 was determined as 138 µM.
In the case of `CCCCC(CC)=NN=C1SCC(=O)N1CN1C(=O)c2ccccc2C1=O` [Compound 31, 2-((2-((Heptan-3-ylidene)hydrazono)-4-oxothiazolidin-3-yl)methyl)isoindoline-1,3-dione], the “TD50, median toxicity dose, a measure” value in series [1] (human) is no less than 320 µM. Moreover, in series [2] (Toxoplasma gondii), the pIC50 was 4.06 and the IC90 came to 402 µM.
Turning to `CC(=NN=C1SCC(=O)N1CN1C(=O)c2ccccc2C1=O)c1ccc[cH-]1.[Fe+2].c1cc[cH-]c1` [Compound 33, 2-((4-Oxo-2-((1-(ferrocen-2-yl)ethylidene)hydrazono)thiazolidin-3-yl)methyl)isoindoline-1,3-dione], the “TD50, median toxicity dose, a measure” value in series [1] (setting [3]) was determined as 138 µM. In series [2], the pIC50 was 4.09 and the IC90 came to 286 µM.

The values above are taken from paper PMC6445228, “Synthesis and biological evaluation of anti-Toxoplasma gondii activity of a novel scaffold of thiazolidinone derivatives” (Journal of Enzyme Inhibition and Medicinal Chemistry, 2017).
